Values quoted from earlier work, collected in PubChem BioAssay AID1259409 (Chemical Carcinogenesis Research Information System (CCRIS), 2018).

Test system: rodent chemically induced tumor inhibition, incidence and multiplicity
Test: CCRIS tumor inhibitor studies

CC(=O)Oc1c(C)c(C)c2c(c1C)CCC(C)(CCCC(C)CCCC(C)CCCC(C)C)O2 (stereo unspecified)
tumour outcome (control, treated, inhibition, significance) (Carcinogen: 7,12-DIMETHYLBENZ[A]ANTHRACENE, 57-97-6, Dose [Inhibitor]: 1000 MG/KG IN 20% CORN OIL DIET DAILY STARTING 2 WK BEFORE CARCINOGEN TREATMENT AND CONTINUING FOR DURATION OF STUDY (ST, Route [Inhibitor]: ORAL, Species: RAT, Strain/Sex: SPRAGUE-DAWLEY/FEMALE, Target Tissue: Type of Lesion: MAMMARY GLAND: ADENOCARCINOMA, Dose [Carcinogen]: 10 MG ONCE AT AGE 50 D): 28/30 (93%), 27/30 (90%), 3%, not significant | tumour outcome (control, treated, inhibition, significance) (Carcinogen: UV-B IRRADIATION, Dose [Inhibitor]: 25, 100 UG/KG IN DIET FOR DURATION OF STUDY BEGINNING 3 WK PRIOR TO IRRADIATION (STUDY DURATION: 40 WK), Route [Inhibitor]: ORAL, Species: MOUSE, Strain/Sex: C3H/HEN/FEMALE, Target Tissue: Type of Lesion: SKIN: TUMOR, Dose [Carcinogen]: 6.4 J/M2/SEC 30 MIN/D 5 D/WK FOR 13 WK , IRRADIATION DISCONTINUED FOR 3 WK DUE TO TOXICITY THEN IT WAS RESUMED FOR 2 WK, Promoter: NONE USED): 67%, 46%, 31%, not calculated | tumour outcome (control, treated, inhibition, significance) (Carcinogen: UV-B IRRADIATION, Dose [Inhibitor]: 25, 200 UG/KG IN DIET FOR DURATION OF STUDY BEGINNING 3 WK PRIOR TO IRRADIATION (STUDY DURATION: 40 WK), Route [Inhibitor]: ORAL, Species: MOUSE, Strain/Sex: C3H/HEN/FEMALE, Target Tissue: Type of Lesion: SKIN: TUMOR, Dose [Carcinogen]: 6.4 J/M2/SEC 30 MIN/D 5 D/WK FOR 13 WK, IRRADIATION DISCONTINUED FOR 3 WK DUE TO TOXICITY THEN IT WAS RESUMED FOR 2 WK, Promoter: NONE USED): 67%, 19%, 72%, not calculated

O=C1C=CC(=O)O1 (tested in a mixture with another compound)
tumour outcome (control, treated, inhibition, significance) (Carcinogen: N-BUTYL-N-(4-HYDROXYBUTYL)NITROSAMINE, 3817-11-6, Dose [Inhibitor]: 12.5 MG/KG IN 4 WK CYCLES OF 1/WK FOR 3 WK AND 1 WK REST STARTING 1 WK AFTER CARCINOGEN ADMINISTRATION THROUGH END OF ST, Route [Inhibitor]: INTRAPERITONEAL, Species: MOUSE, Strain/Sex: BDF1/MALE, Target Tissue: Type of Lesion: URINARY BLADDER: TRANSITIONAL CELL CARCINOMA, Dose [Carcinogen]: 7.5 MG 1/WK FOR 8 WK, Promoter: NONE USED): 19/50 (38%), 14/50 (28%), 26%, not significant | tumour outcome (control, treated, inhibition, significance) (Carcinogen: N-BUTYL-N-(4-HYDROXYBUTYL)NITROSAMINE, 3817-11-6, Dose [Inhibitor]: 12.5 MG/KG IN 4 WK CYCLES OF 3 WK DOSE (1 DOSE/WK) AND 1 WK REST STARTING 1 WK AFTER CARCINOGEN DOSE THROUGH END OF STUD, Route [Inhibitor]: INTRAPERITONEAL, Species: MOUSE, Strain/Sex: DBF1/MALE, Target Tissue: Type of Lesion: URINARY BLADDER: TRANSITIONAL CELL CARCINOMA, Dose [Carcinogen]: 7.5 MG 1/WK FOR 8 WK, Promoter: NONE USED): 19/50 (38%), 14/50 (28%), 26%, not significant | tumour outcome (control, treated, inhibition, significance) (Carcinogen: N-BUTYL-N-(4-HYDROXYBUTYL)NITROSAMINE, 3817-11-6, Dose [Inhibitor]: 25 MG/KG IN 4 WK CYCLES OF 1/WK FOR 3 WK AND 1 WK REST STARTING 1 WK AFTER CARCINOGEN ADMINISTRATION THROUGH END OF STUD, Route [Inhibitor]: INTRAPERITONEAL, Species: MOUSE, Strain/Sex: BDF1/MALE, Target Tissue: Type of Lesion: URINARY BLADDER: TRANSITIONAL CELL CARCINOMA, Dose [Carcinogen]: 7.5 MG 1/WK FOR 8 WK, Promoter: NONE USED): 19/50 (38%), 7/46 (15%), 61%, p<0.05 | tumour outcome (control, treated, inhibition, significance) (Carcinogen: N-BUTYL-N-(4-HYDROXYBUTYL)NITROSAMINE, 3817-11-6, Dose [Inhibitor]: 25 MG/KG IN 4 WK CYCLES OF 3 WK DOSE (1 DOSE/WK) AND 1 WK REST STARTING 1 WK AFTER CARCINOGEN DOSE THROUGH END OF STUDY, Route [Inhibitor]: INTRAPERITONEAL, Species: MOUSE, Strain/Sex: DBF1/MALE, Target Tissue: Type of Lesion: URINARY BLADDER: TRANSITIONAL CELL CARCINOMA, Dose [Carcinogen]: 7.5 MG 1/WK FOR 8 WK, Promoter: NONE USED): 19/50 (38%), 7/46 (15%), 61%, p<0.05 | tumour outcome (control, treated, inhibition, significance) (Carcinogen: N-METHYL-N-NITROSOUREA, 684-93-5, Dose [Inhibitor]: 12.5 MG/KG IN 4 WK CYCLES OF 1/WK FOR 3 WK AND 1 WK REST STARTING 7 D AFTER CARCINOGEN ADMINISTRATION THROUGH END OF STU, Route [Inhibitor]: INTRAPERITONEAL, Species: RAT, Strain/Sex: SPRAGUE-DAWLEY/FEMALE, Target Tissue: Type of Lesion: MAMMARY GLAND: ADENOCARCINOMA, Dose [Carcinogen]: 20 MG/KG BW ONCE, Promoter: NONE USED): 64%, 52%, 19%, not significant | tumour outcome (control, treated, inhibition, significance) (Carcinogen: N-METHYL-N-NITROSOUREA, 684-93-5, Dose [Inhibitor]: 12.5 MG/KG IN 4 WK CYCLES OF 3 WK DOSE (1 DOSE/WK) AND 1 WK REST STARTING 7 D AFTER CARCINOGEN DOSE THROUGH THE END OF S, Route [Inhibitor]: INTRAPERITONEAL, Species: RAT, Strain/Sex: SPRAGUE-DAWLEY/FEMALE, Target Tissue: Type of Lesion: MAMMARY GLAND: ADENOCARCINOMA, Dose [Carcinogen]: 20 MG/KG BW ONCE, Promoter: NONE USED): 64%, 52%, 19%, not significant | tumour outcome (control, treated, inhibition, significance) (Carcinogen: N-METHYL-N-NITROSOUREA, 684-93-5, Dose [Inhibitor]: 25 MG/KG IN 4 WK CYCLES OF 1/WK FOR 3 WK AND 1 WK REST STARTING 7 D AFTER CARCINOGEN ADMINISTRATION THROUGH END OF STUDY, Route [Inhibitor]: INTRAPERITONEAL, Species: RAT, Strain/Sex: SPRAGUE-DAWLEY/FEMALE, Target Tissue: Type of Lesion: MAMMARY GLAND: ADENOCARCINOMA, Dose [Carcinogen]: 20 MG/KG BW ONCE, Promoter: NONE USED): 64%, 50%, 22%, not significant | tumour outcome (control, treated, inhibition, significance) (Carcinogen: N-METHYL-N-NITROSOUREA, 684-93-5, Dose [Inhibitor]: 25 MG/KG IN 4 WK CYCLES OF 3 WK DOSE (1 DOSE/WK) AND 1 WK REST STARTING 7 D AFTER CARCINOGEN DOSE THROUGH END OF STUDY (, Route [Inhibitor]: INTRAPERITONEAL, Species: RAT, Strain/Sex: SPRAGUE-DAWLEY/FEMALE, Target Tissue: Type of Lesion: MAMMARY GLAND: ADENOCARCINOMA, Dose [Carcinogen]: 20 MG/KG BW ONCE, Promoter: NONE USED): 64%, 50%, 22%, not significant

COc1cc(C2OCC3C(c4ccc5c(c4)OCO5)OCC23)ccc1O (stereo unspecified)
tumour outcome (control, treated, inhibition, significance) (Carcinogen: 7,12-DIMETHYLBENZ[A]ANTHRACENE, 57-97-6, Dose [Inhibitor]: 0, 85 NMOL IN 0.1 ML ACETONE 2/WK FOR 20 WK APPLIED 1 HR PRIOR TO EACH PROMOTER DOSE (STUDY DURATION: 20 WK), Route [Inhibitor]: DERMAL, Species: MOUSE, Strain/Sex: ICR/FEMALE, Target Tissue: Type of Lesion: SKIN: PAPILLOMA, Dose [Carcinogen]: 100 UG IN 0.1 ML ACETONE ONCE, Promoter: 12-O-TETRADECANOYLPHORBOL-13-ACETATE, 16561-29-8): 100%, 80%, 20%, not calculated

CC1(C)[C@@H](O[C@H]2O[C@H](C(=O)O)[C@@H](O)[C@H](O)[C@H]2O[C@@H]2O[C@H](C(=O)O)[C@@H](O)[C@H](O)[C@H]2O)CC[C@]2(C)[C@H]3C(=O)C=C4[C@@H]5C[C@@](C)(C(=O)O)CC[C@]5(C)CC[C@@]4(C)[C@]3(C)CC[C@@H]12
tumour outcome (control, treated, inhibition, significance) (Carcinogen: 7,12-DIMETHYLBENZ[A]ANTHRACENE, 57-97-6, Dose [Inhibitor]: 0, 0.05% IN DRINKING WATER BEGINNING 50 D PRIOR TO CARCINOGEN TREATMENT AND CONTINUING FOR THE DURATION OF STUDY (STUDY, Route [Inhibitor]: ORAL, Species: MOUSE, Strain/Sex: SENCAR/FEMALE, Target Tissue: Type of Lesion: SKIN: TUMOR, Dose [Carcinogen]: 40 NMOL IN 0.2 ML ACETONE ONCE, Promoter: 12-O-TETRADECANOYLPHORBOL-13-ACETATE, 16561-29-8): 100%, 100%, 0%, not significant | tumour outcome (control, treated, inhibition, significance) (Carcinogen: 7,12-DIMETHYLBENZ[A]ANTHRACENE, 57-97-6, Dose [Inhibitor]: 0, 0.05% IN DRINKING WATER FOR 50 D PRIOR TO CARCINOGEN TREATMENT (STUDY DURATION: 23 WK), Route [Inhibitor]: ORAL, Species: MOUSE, Strain/Sex: SENCAR/FEMALE, Target Tissue: Type of Lesion: SKIN: TUMOR, Dose [Carcinogen]: 40 NMOL IN 0.2 ML ACETONE ONCE, Promoter: 12-O-TETRADECANOYLPHORBOL-13-ACETATE, 16561-29-8): 100%, 100%, 0%, not significant | tumour outcome (control, treated, inhibition, significance) (Carcinogen: DIETHYLNITROSAMINE, 55-18-5, Dose [Inhibitor]: 0, 2 MG 3/WK FOR 32 WK BEGINNING 2 WK PRIOR TO CARCINOGEN TREATMENT (STUDY DURATION:32 WK), Route [Inhibitor]: INTRAMUSCULAR, Species: MOUSE, Strain/Sex: BALB/MALE, Target Tissue: Type of Lesion: LIVER :HEPATOCELLULAR CARCINOMA, Dose [Carcinogen]: 75 MG/KG 1/WK FOR 3 WK THEN 100 MG/KG 1/WK FOR 3 WK, Promoter: NONE USED): 7/11 (64%), 3.14 (21%), 65%, p<0.05

S=C=Nc1cc2c3ccccc3ccc2c2ccccc12
outcome (Carcinogen: BENZO[A]PYRENE, 50-32-8, Dose [Inhibitor]: 0, 5 UMOL IN ACETONE 4 HR PRIOR TO CARCINOGEN DOSE (STUDY DURATION: 20 WK), Route [Inhibitor]: DERMAL, Species: MOUSE, Strain/Sex: STRAIN-A/FEMALE, Target Tissue: Type of Lesion: SKIN: TUMOR, Dose [Carcinogen]: 0.1 UMOL IN ACETONE ONCE, Promoter: 12-O-TETRADECANOYLPHORBOL-13-ACETATE, 16561-29-8): 85%, 74%, 13%, not significant at 15 wk; 95%, 80%, 16%, not significant at 20 wk
